# Laboratory results: ChEMBL document CHEMBL5226297, “Small-Molecule Drug Discovery in Triple Negative Breast Cancer: Current Situation and Future Directions” (J Med Chem, 2021)
# How the values were obtained:
# MDA-MB-231 [1] = experiment: Anticancer activity against human MDA-MB-231 cells assessed as cell growth inhibition by MTS assay; format: functional, cell-based
# Hs-578T [2] = experiment: Anticancer activity against human Hs-578T cells assessed as cell growth inhibition by MTS assay; format: functional, cell-based
# BT-549 [3] = experiment: Anticancer activity against human BT-549 cells assessed as cell growth inhibition by MTS assay; format: functional, cell-based
# Hs-578T [4] = experiment: Anticancer activity against human Hs-578T cells assessed as cell growth inhibition incubated for 72 hrs by CCK-8 assay; format: functional, cell-based
# BT-549 [5] = experiment: Anticancer activity against human BT-549 cells assessed as cell growth inhibition incubated for 72 hrs by CCK-8 assay; format: functional, cell-based; conditions: BT-549, 72 h
# MDA-MB-231 [6] = experiment: Anticancer activity against human MDA-MB-231 cells assessed as cell growth inhibition incubated for 72 hrs by CCK-8 assay; format: functional, cell-based; conditions: MDA-MB-231, 72 h
# MDA-MB-231 [7] = experiment: Anticancer activity against human MDA-MB-231 cells assessed as cell growth inhibition incubated for 24 hrs by MTT assay; format: functional, cell-based; conditions: MDA-MB-231, 24 h
# MDA-MB-436 [8] = experiment: Anticancer activity against human MDA-MB-436 cells assessed as cell growth inhibition incubated for 24 hrs by MTT assay; format: functional, cell-based; conditions: MDA-MB-436, 24 h
# Interleukin-8 = Interleukin-8 (Homo sapiens, UniProt P10145); experiment: Inhibition of human IL-8 by ELISA assay
# Interleukin-8, sequence (P10145 whole entry): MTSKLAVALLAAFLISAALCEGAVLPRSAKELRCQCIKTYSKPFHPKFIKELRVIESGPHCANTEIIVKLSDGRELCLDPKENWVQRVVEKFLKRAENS
# MDA-MB-231 [9] = experiment: Anticancer activity against human MDA-MB-231 cells assessed as cell growth inhibition incubated for 48 hrs by BrdU assay; format: functional, cell-based; conditions: MDA-MB-231, 48 h
# MDA-MB-468 [10] = experiment: Anticancer activity against human MDA-MB-468 cells assessed as cell growth inhibition incubated for 48 hrs by BrdU assay; format: functional, cell-based; conditions: MDA-MB-468, 48 h
# [11] = target: Protein tyrosine phosphatase type IVA 3 (Homo sapiens) (UniProt O75365); experiment: Inhibition of human PRL-3 incubated for 48 hrs by MMP assay
# Protein tyrosine phosphatase type IVA 3 (Homo sapiens), sequence (O75365 whole entry): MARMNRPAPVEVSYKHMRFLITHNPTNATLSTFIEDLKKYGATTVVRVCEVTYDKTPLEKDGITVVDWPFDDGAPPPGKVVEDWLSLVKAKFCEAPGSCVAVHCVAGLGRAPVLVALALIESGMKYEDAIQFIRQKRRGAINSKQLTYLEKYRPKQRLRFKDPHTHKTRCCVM
# MDA-MB-231 [12] = experiment: cells; conditions: Homo sapiens, MDA-MB-231, 48 h
# Hs-578T [13] = experiment: Anticancer activity against human Hs-578T cells assessed as cell growth inhibition incubated for 72 hrs by MTT assay; format: functional, cell-based
# HCC70 = experiment: Anticancer activity against human HCC70 cells assessed as cell growth inhibition incubated for 72 hrs by MTT assay; format: functional, cell-based; conditions: HCC70, 72 h
# HCC1937 [14] = experiment: Anticancer activity against human HCC1937 cells assessed as cell growth inhibition incubated for 72 hrs by MTT assay; format: functional, cell-based; conditions: HCC1937, 72 h
# MDA-MB-231 [15] = experiment: Anticancer activity against human MDA-MB-231 cells assessed as cell growth inhibition; format: functional, cell-based
# MDA-MB-436 [16] = experiment: Anticancer activity against human MDA-MB-436 cells assessed as cell growth inhibition incubated for 72 hrs by MTT assay; format: functional, cell-based; conditions: MDA-MB-436, 72 h
# MDA-MB-231 [17] = experiment: Anticancer activity against human MDA-MB-231 cells assessed as cell growth inhibition incubated for 72 hrs by MTT assay; format: functional, cell-based; conditions: MDA-MB-231, 72 h
# [18] = Inhibition of ERK (unknown origin); set-up: species or system Homo sapiens
# [19] = Inhibition of MEK (unknown origin); set-up: species or system Homo sapiens
# BT-549 [20] = experiment: Anticancer activity against human BT-549 cells assessed as cell growth inhibition incubated for 24 hrs by MTT assay; format: functional, cell-based; conditions: BT-549, 24 h
# 4T1 = experiment: Anticancer activity against mouse 4T1 cells assessed as cell growth inhibition by MTS assay; format: functional, cell-based
# HCC1806 = experiment: Anticancer activity against human HCC1806 cells assessed as cell growth inhibition incubated for 24 hrs by MTS assay; format: functional, cell-based; conditions: HCC1806, 24 h
# HCC1937 [21] = experiment: Anticancer activity against human HCC1937 cells assessed as cell growth inhibition incubated for 24 hrs by MTS assay; format: functional, cell-based; conditions: HCC1937, 24 h
# [22] = target: Dual specificity mitogen-activated protein kinase kinase 1 (Homo sapiens, UniProt Q02750); experiment: Inhibition of MEK1 (unknown origin)
# Dual specificity mitogen-activated protein kinase kinase 1, sequence (Q02750 whole entry): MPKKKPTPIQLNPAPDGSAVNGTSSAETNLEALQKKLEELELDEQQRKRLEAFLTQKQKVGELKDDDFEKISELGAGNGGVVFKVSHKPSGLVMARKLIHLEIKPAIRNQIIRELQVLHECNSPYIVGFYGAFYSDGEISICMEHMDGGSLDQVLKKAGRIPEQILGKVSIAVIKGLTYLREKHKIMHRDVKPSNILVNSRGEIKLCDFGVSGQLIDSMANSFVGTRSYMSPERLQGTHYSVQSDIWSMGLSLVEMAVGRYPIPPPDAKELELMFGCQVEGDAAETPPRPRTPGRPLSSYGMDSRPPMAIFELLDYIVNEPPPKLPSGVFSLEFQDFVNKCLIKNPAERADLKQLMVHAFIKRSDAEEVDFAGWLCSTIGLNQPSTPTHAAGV
# MDA-MB-231 [23] = experiment: cells; conditions: Homo sapiens
# MDA-MB-468 [24] = experiment: Anticancer activity against human MDA-MB-468 cells assessed as cell growth inhibition by MTT assay; format: functional, cell-based
# HCC38 = experiment: Anticancer activity against human HCC38 cells assessed as cell growth inhibition by MTT assay; format: functional, cell-based
smiles,measurement,setting,value
COc1cc2nccc(C(OC(C)=O)c3ccc4c(c3OC)C=CC(C)(C)O4)c2cc1OC (stereo not given),IC50,MDA-MB-231 [1],5 µM
same,IC50,Hs-578T [2],5 µM
same,IC50,BT-549 [3],15 µM
CO[C@H]1/C=C\C=C(/C)C(=O)NC2=CC(=O)C(NCCN(C)C)=C(C[C@@H](C)C[C@H](OC)[C@H](O)[C@@H](C)/C=C(\C)[C@@H]1OC(N)=O)C2=O [ALVESPIMYCIN],IC50,Hs-578T [4],0.0084 µM
same,IC50,BT-549 [5],17.1 µM
same,IC50,MDA-MB-231 [6],45.7 µM
COC(=O)Nc1nc2cc(C(=O)c3ccc(F)cc3)ccc2[nH]1 [FLUBENDAZOLE],IC50,MDA-MB-231 [7],0.5 µM
same,IC50,MDA-MB-231 [1],0.25 µM
same,IC50,Hs-578T [2],0.125 µM
same,IC50,BT-549 [3],0.125 µM
CNCCC(Oc1ccc(C(F)(F)F)cc1)c1ccccc1 (stereo not given) [FLUOXETINE],IC50,MDA-MB-436 [8],0.5 µM
same,IC50,MDA-MB-231 [7],0.5 µM
CC[C@@H](C(=O)[C@@H](C)[C@@H](O)[C@H](C)[C@@H]1O[C@@H]([C@@H](CC)C(=O)O)CC[C@@H]1C)[C@H]1O[C@]2(C=C[C@@H](O)[C@]3(CC[C@@](C)([C@H]4CC[C@](O)(CC)[C@H](C)O4)O3)O2)[C@H](C)C[C@@H]1C [SALINOMYCIN],IC50,MDA-MB-231 [1],0.5 µM
COc1ccc2cc3[n+](cc2c1OC)CCc1cc2c(cc1-3)OCO2 [BERBERINE],IC50,Interleukin-8,50 µM
CC(C)CC[C@@H]1NC(=O)[C@]2(C)CCCN2C1=O,IC50,MDA-MB-231 [9],73.4 µM
same,IC50,MDA-MB-468 [10],67.4 µM
C=C1/C(=C\C=C2/CCC[C@]3(C)[C@@H]([C@H](C)CCCC(C)(C)O)CC[C@@H]23)C[C@@H](OC(=O)CBr)C[C@@H]1O,IC,[11],100 nM
C=C1[C@H]2[C@@H](/C(=C/C)C(=O)[C@H]2CC(=O)C(C)CC)[C@H](C(C)C)N[C@H]1CC(=O)/C=C(\C)CC (stereo not given in full),IC50,MDA-MB-231 [7],5 µM
OC[C@H]1O[C@@H](OCCc2ccc(O)cc2)[C@H](O)[C@@H](O)[C@@H]1O [SALIDROSIDE],IC50,MDA-MB-231 [7],40 µM
C=C(C)[C@@H]1CCC(C)=C[C@H]1c1c(O)cc(CCCCC)cc1O [CANNABIDIOL],IC50,MDA-MB-231 [12],6 µM
C[C@@H]1COC(Nc2ccc3ncnc(Nc4ccc(OCc5nccs5)c(Cl)c4)c3c2)=N1 [VARLITINIB],IC50,Hs-578T [13],10 µM
same,IC50,HCC70,10 µM
same,IC50,HCC1937 [14],20 µM
CO[C@H]1C[C@H](C)Cc2cc(O)cc(c2)NC(=O)/C(C)=C/CC[C@H](OC)[C@@H](OC(N)=O)/C(C)=C/[C@H](C)[C@H]1O,IC50,MDA-MB-231 [15],74.9 µM
C=C1C(=O)O[C@@H]2/C=C(\C)[C@@H](O)C/C=C(/C)C[C@@H](OC(=O)/C(C)=C/CO)[C@@H]12,IC50,MDA-MB-436 [16],3.04 µM
same,IC50,MDA-MB-231 [17],3.21 µM
CCOC(=O)C1=C(C)NC(=O)NC1c1cccc([N+](=O)[O-])c1 (stereo not given),IC50,[18],50 µM
same,IC50,[19],50 µM
C=C1C(=O)O[C@]2(C)CC[C@H](CBr)[C@]12O,IC50,MDA-MB-436 [8],11.8 µM
same,IC50,BT-549 [20],9.63 µM
same,IC50,MDA-MB-231 [7],12.1 µM
CCN(CC)C(=S)SSC(=S)N(CC)CC,IC50,4T1,0.25 µM
C=Cc1c(C)c2cc3nc(c4c5nc(cc6[nH]c(cc1[nH]2)c(C)c6CC)C(C)=C5C(=O)[C@@H]4C(=O)OC)C(CCC(=O)O)=C3C,IC50,MDA-MB-231 [17],6.5 µM
COC(=O)[C@@H](O)[C@](O)(CCC(C)C)C(=O)O[C@@H]1C(OC)=C[C@]23CCCN2CCc2cc4c(cc2[C@H]13)OCO4,IC50,HCC1806,0.1 µM
same,IC50,HCC1937 [21],0.5 µM
Clc1cc(Cl)cc(C(Cn2ccnc2)OCc2nc3ccccc3s2)c1 (stereo not given),IC50,[18],5 µM
O=C(c1ccc(F)c(F)c1Nc1ccc(I)cc1F)N1CC(O)([C@@H]2CCCCN2)C1 [COBIMETINIB],IC50,[22],4.2 µM
O=C(NC[C@H](O)CN1CCc2ccccc2C1)c1cc(NC2COC2)ncn1,IC50,MDA-MB-231 [23],60 µM
same,IC50,MDA-MB-468 [24],1 µM
same,IC50,HCC38,5 µM
